From patent US20200147117A1, “COMBINATION CANCER THERAPY” (BIOSIGHT LTD., priority 2017, published 2020)
Like-named read-outs stand apart in the source and are kept apart here.

Key:
Molt-4 cells = assay: Activity of Asp-Cytarabine/BST-236 on Molt-4 cells, 48 hr, 10% FCS (Table 5); assay type: cell-based, human
U937 leukemia cells = assay: Animal model of leukemia: NSG mice injected IV with U937 cells; assay type: in vivo, NOD scid gamma (NSG) mice; conditions: for Spleen size / weight compared to the control mice: s.c. daily, FIG. 4
Protocol: The effect of BST-236 in combination with azacytidine on the survival of U937 leukemia cells in vivo was next examined NOD scid gamma (NSG) mice were irradiated with 200 rad, 24 hours before injection with U937 cells. On Day 0, mice (4-5 animals per group), were injected intravenously (IV) with 7×10^6 U937 cells in a total volume of 200 μL PBS. On Days 16-22 (7 days, first study) or 13-18 (6 days, second study), mice were daily injected subcutaneously (s.c.) with BST-236 (5 mg/mouse; ˜250 mg/kg), azacytidine (designated AZA; 6 mg/kg), or BST-236 (5 mg/mouse; ˜250 mg/kg) and AZA (6 mg/kg). Twenty-four hours after the last injection, mice were sacrificed, and spleen, blood, and bone marrow were analyzed for mouse and human CD45^+ cells using fluorescence-activated cell sorting (FACS).
Given that finding, experiments will be performed using even lower doses of BST-236 to evaluate synergistic activity with, e.g., AZA. It is, for example, expected that 20 mg/kg BST-236 will be efficacious. Accordingly, in a particular embodiment, NSG mice will be dosed with 20 mg/kg BST-236 alone, 6 mg/kg AZA alone, or a combination of 20 mg/kg BST-236 and 6 mg/kg AZA to investigate synergistic activity with this dosing regimen. It is understood that synergistic activity may also be observed at lower doses of AZA in combination with 20 mg/kg BST-236.

[1] = test system: U937 human hematological cancer cells; assay: Proliferation and survival of U937 cells, PI staining / FACS, 72 hours; assay type: cell-based
Protocol: U937 human hematological cancer cells were cultured in RPMI supplemented with 10% FCS. […] Azacitidine (AZA) was added to the cell cultures at 5 different concentrations: 0, 100, 250, 1000, 5000 nM. […] All groups were analyzed in triplicates. […] The percentage of inhibition was calculated.

[2] = test system: Molt-4 human leukemia cell line; assay: Molt-4 cell proliferation, MTT assay, 72 hr; assay type: cell-based
Protocol: Molt-4 human leukemia cell line was obtained from ATCC. The cells were grown in RPMI medium containing 10% FBS and 1% glutamine Cells were seeded in 96-well plates, 50,000 cells/ml, 0.2 ml per well. Test substances were diluted in PBS and added in final concentrations of 0.1 nM to 10 μM, in a volume of 20 μl. The study was conducted in triplicates. PBS was used as a control. Plates were incubated for 72 hr at 37° C. with 5% CO2. At the end of the treatment period, a MTT assay using the MTT reagent [3-(4,5-dimethylthiazol-2-yl)-2,5-diphenyltetrazolium bromide] was performed. MTT was added to each well at a concentration of 5 mg/ml in a volume of 0.02 ml. Plates were incubated at 37° C. for 3 hours. The plates were centrifuged at 3500 rpm for 5 minutes and the supernatant was aspirated. The pellets which contained MTT crystals were each dissolved in 0.2 ml DMSO. Absorbance was determined using ELISA reader at a wavelength of 570 nm.

[3] = PK analysis from Phase I/II studies after infusion; assay type: in vivo
Text: Accordingly, synergistic interactions may be observed within […] administration of BST-236.

U937 cells = assay: Activity of BST-236 on U937 cells, 48 hr, 10% FCS (Table 3); assay type: cell-based, human
[4] = BST-236 5 mg/mouse, AZA 6 mg/kg

With `NC(CC(=O)Nc1ccn([C@@H]2O[C@H](CO)C(O)C2O)c(=O)n1)C(=O)O` (stereo partly shown) [Asp-Cytarabine] as the compound, how does the “Activity on Molt-4 cells (count)” value (Molt-4 cells; 1 nM, 48 hr, 10% FCS) read?
The value was 18778.00.

And the “Activity on Molt-4 cells (count)” value (Molt-4 cells; 10 nM, 48 hr, 10% FCS)?
Its value is 17759.00.

And the “Activity on Molt-4 cells (count)” value (Molt-4 cells; 50 nM, 48 hr, 10% FCS)?
Its value is 14258.67.

And the “Activity on Molt-4 cells (count)” value (Molt-4 cells; 100 nM, 48 hr, 10% FCS)?
Its value is 12006.67.

And the “Activity on Molt-4 cells (count)” value (Molt-4 cells; 250 nM, 48 hr, 10% FCS)?
Its value is 9572.00.

What about the “Activity on Molt-4 cells (count)” value (Molt-4 cells; 1000 nM, 48 hr, 10% FCS) of the same compound?
Its value is 3156.33.

And the “Activity on Molt-4 cells (count)” value (Molt-4 cells; 5000 nM, 48 hr, 10% FCS)?
The value was 2037.33.

What about the inhibition at 0.001 µM (Molt-4 cells; Homo sapiens, MOLT-4, 1 nM, 48 hr, 10% FCS, read-out: Activity on Molt-4 cells (inhibition relative to 0)) of the same compound?
Its inhibition at 0.001 µM is 1.88%.

What about the inhibition at 0.01 µM (Molt-4 cells; Homo sapiens, MOLT-4, 10 nM Asp-Cytarabine, read-out: inhibition of Molt-4 cells) of the same compound?
Its inhibition at 0.01 µM is less than 10%.

And the inhibition at 0.01 µM (Molt-4 cells; Homo sapiens, MOLT-4, 10 nM, 48 hr, 10% FCS, read-out: Activity on Molt-4 cells (inhibition relative to 0))?
The inhibition at 0.01 µM was 7.21%.

And the inhibition at 0.05 µM (Molt-4 cells; Homo sapiens, MOLT-4, 50 nM, 48 hr, 10% FCS, read-out: Activity on Molt-4 cells (inhibition relative to 0))?
The inhibition at 0.05 µM was 25.5%.

What about the inhibition at 0.1 µM (Molt-4 cells; Homo sapiens, MOLT-4, 100 nM, 48 hr, 10% FCS, read-out: Activity on Molt-4 cells (inhibition relative to 0)) of the same compound?
Its inhibition at 0.1 µM is 37.3%.

And the inhibition at 0.25 µM (Molt-4 cells; Homo sapiens, MOLT-4, 250 nM, 48 hr, 10% FCS, read-out: Activity on Molt-4 cells (inhibition relative to 0))?
The inhibition at 0.25 µM was 50%.

What about the inhibition at 1 µM (Molt-4 cells; Homo sapiens, MOLT-4, 1000 nM, 48 hr, 10% FCS, read-out: Activity on Molt-4 cells (inhibition relative to 0)) of the same compound?
The inhibition at 1 µM was 83.5%.

What about the inhibition at 5 µM (Molt-4 cells; Homo sapiens, MOLT-4, 5000 nM, 48 hr, 10% FCS, read-out: Activity on Molt-4 cells (inhibition relative to 0)) of the same compound?
Its inhibition at 5 µM is 89.3%.

What about the “Spleen size / weight compared to the control mice” value (U937 leukemia cells; [4]) of the same compound?
The value was “reduced spleen size”.

And the “Animals that survived until the scheduled sacrifice” value (U937 leukemia cells; first study, s.c. daily Days 16-22, sacrifice on Day 23, BST-236 5 mg/mouse, AZA 6 mg/kg)?
Its value is 4/4.

And the “% inhibition (growth inhibition of U937 cells)” value ([1]; BST236 250 nM alone)?
Its value is 19.1%.

And the IC50 [2]?
Its IC50 is 0.047 µM.

And the “Concentration decline following infusion cessation” value ([3]; Phase I/II studies)?
The value was “rapidly declined in an apparent biphasic manner”.

What about the “Concentration relative to the peak” value ([3]; at 6-10 hours from the completion of the infusion) of the same compound?
The value was ≤ 5 % of the peak.

And the “Activity on U937 cells (count)” value (U937 cells; 1 nM, 48 hr, 10% FCS)?
Its value is 16958.

What about the “Activity on U937 cells (count)” value (U937 cells; 10 nM, 48 hr, 10% FCS) of the same compound?
Its value is 16994.

What about the “Activity on U937 cells (count)” value (U937 cells; 50 nM, 48 hr, 10% FCS) of the same compound?
Its value is 15769.67.

What about the “Activity on U937 cells (count)” value (U937 cells; 100 nM, 48 hr, 10% FCS) of the same compound?
The value was 15228.33333.

And the “Activity on U937 cells (count)” value (U937 cells; 250 nM, 48 hr, 10% FCS)?
Its value is 14819.67.

What about the “Activity on U937 cells (count)” value (U937 cells; 1000 nM, 48 hr, 10% FCS) of the same compound?
The value was 6185.667.

What about the “Activity on U937 cells (count)” value (U937 cells; 5000 nM, 48 hr, 10% FCS) of the same compound?
Its value is 2116.

And the inhibition at 0.001 µM (U937 cells; Homo sapiens, U-937, 1 nM, 48 hr, 10% FCS, read-out: Activity on U937 cells (inhibition relative to 0))?
The inhibition at 0.001 µM was -2.27%.

What about the inhibition at 0.01 µM (U937 cells; Homo sapiens, U-937, 10 nM, 48 hr, 10% FCS, read-out: Activity on U937 cells (inhibition relative to 0)) of the same compound?
Its inhibition at 0.01 µM is -2.49%.

What about the inhibition at 0.05 µM (U937 cells; Homo sapiens, U-937, 50 nM, 48 hr, 10% FCS, read-out: Activity on U937 cells (inhibition relative to 0)) of the same compound?
The inhibition at 0.05 µM was 4.9%.

And the inhibition at 0.1 µM (U937 cells; Homo sapiens, U-937, 100 nM, 48 hr, 10% FCS, read-out: Activity on U937 cells (inhibition relative to 0))?
Its inhibition at 0.1 µM is 8.16%.

What about the inhibition at 0.25 µM (U937 cells; Homo sapiens, U-937, 250 nM Asp-Cytarabine administered alone, read-out: inhibition of U937 cells) of the same compound?
Its inhibition at 0.25 µM is less than 20%.

What about the inhibition at 0.25 µM (U937 cells; Homo sapiens, U-937, 250 nM, 48 hr, 10% FCS, read-out: Activity on U937 cells (inhibition relative to 0)) of the same compound?
Its inhibition at 0.25 µM is 10.6%.

And the inhibition at 1 µM (U937 cells; Homo sapiens, U-937, 1000 nM, 48 hr, 10% FCS, read-out: Activity on U937 cells (inhibition relative to 0))?
The inhibition at 1 µM was 62.7%.

What about the inhibition at 5 µM (U937 cells; Homo sapiens, U-937, 5000 nM, 48 hr, 10% FCS, read-out: Activity on U937 cells (inhibition relative to 0)) of the same compound?
The inhibition at 5 µM was 87.2%.

Which results are given for `Nc1ncn([C@@H]2O[C@H](CO)[C@@H](O)[C@H]2O)c(=O)n1` [Azacitidine]?
Spleen size / weight compared to the control mice (U937 leukemia cells; [4]): reduced spleen size; Animals that died before the scheduled sacrifice (U937 leukemia cells; first study, AZA 6 mg/kg s.c. daily Days 16-22, sacrifice on Day 23): 1/4; % inhibition (growth inhibition of U937 cells) ([1]; AZA 100 nM alone): 1.68%; % inhibition (growth inhibition of U937 cells) ([1]; AZA 250 nM alone): −3.60%; % inhibition (growth inhibition of U937 cells) ([1]; AZA 1000 nM alone): 0.60%; % inhibition (growth inhibition of U937 cells) ([1]; AZA 5000 nM alone): 4.30%; IC50 [2]: 2.11 µM
